The record followed here is patent US20200030349A1, “PHYSIOLOGICALLY ACTIVE PREPARATION COMPRISING N-ACETYL-GLUCOSAMINE FOR THE TREATMENT OF BACK PAIN” (Natural Products & Drugs GmbH, priority 2017, published 2020).

Data set [1] is described as follows: stability in solution. The format is physicochemical. The conditions noted are these: over pH range. The source says:
(§1) Advantageously according to the invention, the composition for use in a method for the prophylaxis and/or treatment of back pain and the composition comprising at least two components are in the form of an oral dosage form. An oral dosage form is easy to handle and is accepted by a user without problems. In addition, the user can easily take the composition themself. It is preferably a solid form of administration, in particular in the form of capsules, tablets, dragées, granules and powders. Addition of the composition to functional foods, such as a bar for healthy nutrition, is also possible. Alternatively or in addition, a liquid dosage form, in particular in the form of drops, stable solutions and/or juices, is also possible.

Data set [2] is described as follows: water solubility. The format is physicochemical.
Excerpt: as §1

For `CC(=O)N[C@H]1C(O)O[C@H](CO)[C@@H](O)[C@@H]1O` (stereo partly drawn) [N-acetyl-glucosamine, N-acetyl-D-glucosamine], the stability in solution result in data set [1] is “stable in solution over a wide pH range”. The water solubility entry in data set [2] is listed as “good water solubility”.
